ChEMBL document CHEMBL1201862, “PubChem BioAssay data set” (2004)
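Five compound concentrations were applied to cells in 96-well plates for 48 hours; endpoints were derived by simple linear interpolation of the resulting dose-response curve. At the GI50, growth is halved.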 The source made the active and inactive calls. Cut-off read from the data, not from the text of the source: active = GI50 up to about 1.1 µM and inactive = higher.

Tests used:
Assay in all cases: DTP human tumour cell line panel, 48 h
UACC-62 = test system: UACC-62
SF-295 = test system: SF-295
ACHN = test system: ACHN
IGROV-1 = test system: IGROV-1
MDA-N = test system: MDA-N
SNB-19 = test system: SNB-19
Malme-3M = test system: Malme-3M
RPMI-8226 = test system: RPMI-8226
OVCAR-5 = test system: OVCAR-5
NCI-H23 = test system: NCI-H23
T47D = test system: T47D
SK-MEL-5 = test system: SK-MEL-5
HL-60 = test system: HL-60
Hs-578T = test system: Hs-578T
CAKI-1 = test system: CAKI-1
BT-549 = test system: BT-549
UACC-257 = test system: UACC-257
SK-MEL-2 = test system: SK-MEL-2
OVCAR-4 = test system: OVCAR-4
MDA-MB-231 = test system: MDA-MB-231

| SMILES | GI50 (UACC-62) | GI50 (SF-295) | GI50 (ACHN) | GI50 (IGROV-1) | GI50 (MDA-N) | GI50 (SNB-19) | GI50 (Malme-3M) | GI50 (RPMI-8226) | GI50 (OVCAR-5) | GI50 (NCI-H23) | GI50 (T47D) | GI50 (SK-MEL-5) | GI50 (HL-60) | GI50 (Hs-578T) | GI50 (CAKI-1) | GI50 (BT-549) | GI50 (UACC-257) | GI50 (SK-MEL-2) | GI50 (OVCAR-4) | GI50 (MDA-MB-231) |
| --- | --- | --- | --- | --- | --- | --- | --- | --- | --- | --- | --- | --- | --- | --- | --- | --- | --- | --- | --- | --- |
| O=S(=O)(O)/C(=N\c1cccc(Cc2ccccc2)c1)Nc1cccc(Cc2ccccc2)c1 | 16.5 µM (inactive) | 18.2 µM (inactive) | 17.4 µM (inactive) | 16.6 µM (inactive) | 20.4 µM (inactive) | 21.2 µM (inactive) | 17.5 µM (inactive) | 23.8 µM (inactive) | 18.1 µM (inactive) | 16.4 µM (inactive) | 15.8 µM (inactive) | 18.1 µM (inactive) | 33.4 µM (inactive) | 19.1 µM (inactive) | 42.5 µM (inactive) | 17.7 µM (inactive) | 24.2 µM (inactive) | 21.6 µM (inactive) | 19.5 µM (inactive) | 17.8 µM (inactive) |
| C[N+](C)(C)CCC(=O)N1C/C(=C\c2ccccc2)C(=O)/C(=C/c2ccccc2)C1 | 3.58 µM (inactive) | 3.78 µM (inactive) | 6.3 µM (inactive) | 5.12 µM (inactive) | 1.9 µM (inactive) | 5.38 µM (inactive) | 15.4 µM (inactive) | 0.385 µM (active) | 16.9 µM (inactive) | 10.4 µM (inactive) | 2.09 µM (inactive) | 9.95 µM (inactive) | 2.27 µM (inactive) | 4.31 µM (inactive) | 6.49 µM (inactive) | 2.33 µM (inactive) | 12.2 µM (inactive) | 15.8 µM (inactive) | 3.37 µM (inactive) | 3.22 µM (inactive) |
| Cc1c(-c2nc(N)nc(C3CC3)c2C)nc(N)nc1C1CC1 | > 100 µM (inactive) | > 100 µM (inactive) | > 100 µM (inactive) | > 100 µM (inactive) | > 100 µM (inactive) | > 100 µM (inactive) | > 100 µM (inactive) | > 100 µM (inactive) | > 100 µM (inactive) | > 100 µM (inactive) | > 100 µM (inactive) | > 100 µM (inactive) | > 100 µM (inactive) | > 100 µM (inactive) | > 100 µM (inactive) | > 100 µM (inactive) | > 100 µM (inactive) | > 100 µM (inactive) | > 100 µM (inactive) | > 100 µM (inactive) |
| CC[C@H](C)[C@H](NC(=O)[C@@]1(O)[C@H](O)[C@]2(CC)C=CCN3CC[C@@]4(c5cc(Br)c(OC)cc5N(C)[C@@H]14)[C@@H]32)C(=O)OC | 12.6 µM (inactive) | 33.8 µM (inactive) | 24.8 µM (inactive) | 26.3 µM (inactive) | 25.6 µM (inactive) | 64.3 µM (inactive) | 21.9 µM (inactive) | 14.2 µM (inactive) | > 100 µM (inactive) | 86.1 µM (inactive) | 52.4 µM (inactive) | 24.4 µM (inactive) | 37.8 µM (inactive) | 23.2 µM (inactive) | 22.5 µM (inactive) | 88.5 µM (inactive) | 24.9 µM (inactive) | 26.2 µM (inactive) | 4.84 µM (inactive) | 15.7 µM (inactive) |
| CCCCCCCCCCCCC1N=C(N)N2CCCC2=C1C(=O)OC (stereo not given) | 1.74 µM (inactive) | 1.78 µM (inactive) | 5.38 µM (inactive) | 3.22 µM (inactive) | 1.95 µM (inactive) | 1.8 µM (inactive) | 1.8 µM (inactive) | 1.82 µM (inactive) | 6.25 µM (inactive) | 2.26 µM (inactive) | 1.69 µM (inactive) | 2.42 µM (inactive) | 1.85 µM (inactive) | 2.25 µM (inactive) | 3.24 µM (inactive) | 10.9 µM (inactive) | 1.86 µM (inactive) | 2.32 µM (inactive) | 2.31 µM (inactive) | 1.9 µM (inactive) |
| O=C(O)c1ccc2c(c1C(=O)O)C(=O)OC2(c1ccc(O)cc1)c1ccc(O)cc1 | > 100 µM (inactive) | > 100 µM (inactive) | > 100 µM (inactive) | > 100 µM (inactive) | > 100 µM (inactive) | > 100 µM (inactive) | > 100 µM (inactive) | > 100 µM (inactive) | > 100 µM (inactive) | > 100 µM (inactive) | > 100 µM (inactive) | > 100 µM (inactive) | > 100 µM (inactive) | > 100 µM (inactive) | > 100 µM (inactive) | > 100 µM (inactive) | > 100 µM (inactive) | > 100 µM (inactive) | > 100 µM (inactive) | > 100 µM (inactive) |
| O=C(Nc1cccc(Cl)c1)Nn1cnnc1 | > 100 µM (inactive) | > 100 µM (inactive) | > 100 µM (inactive) | > 100 µM (inactive) | > 100 µM (inactive) | > 100 µM (inactive) | > 100 µM (inactive) | > 100 µM (inactive) | 0.339 µM (active) | > 100 µM (inactive) | > 100 µM (inactive) | > 100 µM (inactive) | 66.5 µM (inactive) | > 100 µM (inactive) | > 100 µM (inactive) | > 100 µM (inactive) | > 100 µM (inactive) | > 100 µM (inactive) | > 100 µM (inactive) | > 100 µM (inactive) |
| Cc1cc(C)c2c(SCc3ccc(Cl)cc3Cl)nc(N)nc2n1 | > 100 µM (inactive) | > 100 µM (inactive) | 57.5 µM (inactive) | 28.7 µM (inactive) | > 100 µM (inactive) | 58.9 µM (inactive) | 32 µM (inactive) | 60.7 µM (inactive) | > 100 µM (inactive) | > 100 µM (inactive) | 17.2 µM (inactive) | > 100 µM (inactive) | > 100 µM (inactive) | 37.8 µM (inactive) | > 100 µM (inactive) | > 100 µM (inactive) | 4.6 µM (inactive) | 50.1 µM (inactive) | > 100 µM (inactive) | > 100 µM (inactive) |
